Active and inactive are the calls of the source.
Key:
[1] = target: Vascular endothelial growth factor receptor 3 (Homo sapiens, UniProt P35916); format: functional;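 also: value from a kinome-wide profiling panel, with FLT4 as the panel member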
[2] = target: cAMP-dependent protein kinase catalytic subunit alpha (Homo sapiens, UniProt P17612); format: functional
Aurora kinase B = Aurora kinase B (Homo sapiens, UniProt Q96GD4); format: functional
[3] = target: Macrophage colony-stimulating factor 1 receptor (Homo sapiens, UniProt P07333); format: functional;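 also: value comes from the Navigating the Kinome screening panel, CSF1R member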
[4] = target: Serine/threonine-protein kinase pim-1 (Homo sapiens, UniProt P11309); format: functional
[5] = target: Cyclin-dependent kinase 8 (Homo sapiens, UniProt P49336); experiment: Navigating the Kinome. Panel member name: CDK8; format: functional
[6] = target: Leucine-rich repeat serine/threonine-protein kinase 2 (Homo sapiens, UniProt Q5S007); format: functional;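 also: value from a broad kinome-wide panel profiling study in which LRRK2 was one of the kinases tested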
Misshapen-like kinase 1 = Misshapen-like kinase 1 (Homo sapiens, UniProt Q8N4C8); format: functional;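 also: kinome panel screen with MINK as the panel member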
[7] = target: Proto-oncogene tyrosine-protein kinase receptor Ret (Homo sapiens, UniProt P07949); format: functional;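 also: measured within a kinome-wide profiling panel, RET as the panel member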
[8] = target: Tyrosine-protein kinase JAK2 (Homo sapiens, UniProt O60674); format: functional;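 also: JAK2 tested as one member of a kinase panel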
[9] = target: Tyrosine-protein kinase Fyn (Homo sapiens, UniProt P06241); format: functional
[10] = target: Dual specificity mitogen-activated protein kinase kinase 2 (Homo sapiens, UniProt P36507); experiment: Navigating the Kinome. Panel member name: MAP2K2; format: functional
[11] = target: T1, Serine/threonine-protein kinase Chk1 (Homo sapiens, UniProt O14757); format: functional;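 also: measured as one member of a kinome-wide kinase profiling panel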
T1 sequence (O14757 whole entry): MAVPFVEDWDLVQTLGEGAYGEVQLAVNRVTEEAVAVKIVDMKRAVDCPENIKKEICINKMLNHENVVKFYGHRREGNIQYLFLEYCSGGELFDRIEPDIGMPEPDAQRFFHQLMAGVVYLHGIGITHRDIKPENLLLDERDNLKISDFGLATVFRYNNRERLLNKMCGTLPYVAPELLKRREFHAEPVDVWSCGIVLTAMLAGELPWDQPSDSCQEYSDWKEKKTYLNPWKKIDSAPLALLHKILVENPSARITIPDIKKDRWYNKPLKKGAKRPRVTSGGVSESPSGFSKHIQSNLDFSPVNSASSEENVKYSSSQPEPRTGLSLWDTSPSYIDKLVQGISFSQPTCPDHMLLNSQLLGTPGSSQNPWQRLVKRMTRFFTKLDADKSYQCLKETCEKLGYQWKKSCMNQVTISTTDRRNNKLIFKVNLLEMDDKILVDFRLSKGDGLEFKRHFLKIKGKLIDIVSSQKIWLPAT

[12] = target: cAMP-dependent protein kinase catalytic subunit PRKX (Homo sapiens, UniProt P51817); format: functional
[13] = target: Mitogen-activated protein kinase kinase kinase kinase 5 (Homo sapiens, UniProt Q9Y4K4); format: functional;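 also: measured as one member of a kinome-spanning kinase panel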
[14] = target: Tyrosine-protein kinase Blk (Homo sapiens, UniProt P51451); format: functional;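 also: obtained as one member of a kinome-wide kinase assay panel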
[15] = inhibitors of intracellular T. cruzi replication, confirmation, NIH3T3 host cells, beta-gal luminescence (AID 2044); format: functional, cell-based;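 also: intracellular parasites grown in NIH/3T3 mouse fibroblasts as host cells; luminescent beta-galactosidase reporter signal from transgenic T. cruzi replicating inside host cells; inhibitors lower the luminescence signal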
Cysteine protease ATG4B = target: T2, Cysteine protease ATG4B (Homo sapiens, UniProt Q9Y4P1); format: functional;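 also: Fluorescence-based dose-response confirmation assay measuring inhibition of ATG4B activity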
T2 sequence (Q9Y4P1 whole entry): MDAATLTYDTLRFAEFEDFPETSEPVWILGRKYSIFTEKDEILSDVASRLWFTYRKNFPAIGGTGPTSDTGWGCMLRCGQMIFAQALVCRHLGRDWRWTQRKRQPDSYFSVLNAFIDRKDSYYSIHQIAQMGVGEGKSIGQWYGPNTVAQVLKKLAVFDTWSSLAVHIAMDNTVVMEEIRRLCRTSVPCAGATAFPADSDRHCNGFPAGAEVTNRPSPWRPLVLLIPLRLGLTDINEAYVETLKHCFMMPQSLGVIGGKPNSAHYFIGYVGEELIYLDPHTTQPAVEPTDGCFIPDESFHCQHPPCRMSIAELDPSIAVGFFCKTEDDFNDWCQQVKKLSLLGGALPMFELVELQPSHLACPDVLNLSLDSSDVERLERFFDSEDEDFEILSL

Protein RecA = target: T3, Protein RecA (Mycobacterium tuberculosis, UniProt P9WHJ3); experiment: RecA Intein Measured in Biochemical System Using Plate Reader - 2047-02_Inhibitor_Dose_DryPowder_Activity. [Related pubchem assays (depositor defined):AID2223]; design: species or system Mycobacterium tuberculosis H37Rv
T3 sequence (P9WHJ3 whole entry): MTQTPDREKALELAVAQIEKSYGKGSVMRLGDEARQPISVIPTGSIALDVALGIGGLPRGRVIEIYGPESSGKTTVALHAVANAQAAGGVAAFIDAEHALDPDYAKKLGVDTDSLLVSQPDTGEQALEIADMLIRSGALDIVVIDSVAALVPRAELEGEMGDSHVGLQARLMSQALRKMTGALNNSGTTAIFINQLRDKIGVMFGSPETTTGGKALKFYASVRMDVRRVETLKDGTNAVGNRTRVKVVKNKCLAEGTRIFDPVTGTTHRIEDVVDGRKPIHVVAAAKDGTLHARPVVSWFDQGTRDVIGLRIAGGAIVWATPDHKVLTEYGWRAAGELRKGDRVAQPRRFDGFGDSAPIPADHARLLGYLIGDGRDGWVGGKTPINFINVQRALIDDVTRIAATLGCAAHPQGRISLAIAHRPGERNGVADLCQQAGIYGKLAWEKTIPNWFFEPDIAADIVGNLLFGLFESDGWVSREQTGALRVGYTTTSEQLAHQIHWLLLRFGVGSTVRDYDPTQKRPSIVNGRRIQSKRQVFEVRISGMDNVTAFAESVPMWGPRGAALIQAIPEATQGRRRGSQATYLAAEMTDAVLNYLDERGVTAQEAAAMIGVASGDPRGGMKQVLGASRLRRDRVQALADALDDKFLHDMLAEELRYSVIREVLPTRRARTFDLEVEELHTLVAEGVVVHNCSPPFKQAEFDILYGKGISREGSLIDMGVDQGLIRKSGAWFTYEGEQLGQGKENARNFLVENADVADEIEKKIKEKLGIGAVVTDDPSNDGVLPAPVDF

[16] = target: Histone-lysine N-methyltransferase NSD2 (Homo sapiens, UniProt O96028); format: biochemical
[17] = target: Luciferin 4-monooxygenase (Photinus pyralis, UniProt P08659); experiment: Counter Screen for Luciferase-based Assay Positives. [Related pubchem assays: 620, 618, 411 ]
Jurkat = experiment: antigen receptor-induced NF-kB inhibitors, dose response, Jurkat, luciferase reporter, luminescence, B- and T-cell (AID 489004); format: functional, cell-based; conditions: Homo sapiens;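 also: NF-kB luciferase reporter Jurkat cells stimulated with PMA plus ionomycin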

Chain of Cyclin-dependent kinase 8 (P49336 whole entry): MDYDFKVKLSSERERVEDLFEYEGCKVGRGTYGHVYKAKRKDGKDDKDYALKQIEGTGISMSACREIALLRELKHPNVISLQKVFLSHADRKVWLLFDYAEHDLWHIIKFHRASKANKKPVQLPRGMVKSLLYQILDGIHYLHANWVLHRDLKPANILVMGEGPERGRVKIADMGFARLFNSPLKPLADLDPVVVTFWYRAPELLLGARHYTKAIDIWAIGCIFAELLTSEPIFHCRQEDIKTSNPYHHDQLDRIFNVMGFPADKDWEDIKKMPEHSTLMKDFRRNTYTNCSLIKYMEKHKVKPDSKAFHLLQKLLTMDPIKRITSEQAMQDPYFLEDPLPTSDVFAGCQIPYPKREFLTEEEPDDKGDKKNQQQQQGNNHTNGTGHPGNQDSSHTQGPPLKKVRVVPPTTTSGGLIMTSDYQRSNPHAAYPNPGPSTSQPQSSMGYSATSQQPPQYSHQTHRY
Chain of Tyrosine-protein kinase JAK2 (O60674 whole entry): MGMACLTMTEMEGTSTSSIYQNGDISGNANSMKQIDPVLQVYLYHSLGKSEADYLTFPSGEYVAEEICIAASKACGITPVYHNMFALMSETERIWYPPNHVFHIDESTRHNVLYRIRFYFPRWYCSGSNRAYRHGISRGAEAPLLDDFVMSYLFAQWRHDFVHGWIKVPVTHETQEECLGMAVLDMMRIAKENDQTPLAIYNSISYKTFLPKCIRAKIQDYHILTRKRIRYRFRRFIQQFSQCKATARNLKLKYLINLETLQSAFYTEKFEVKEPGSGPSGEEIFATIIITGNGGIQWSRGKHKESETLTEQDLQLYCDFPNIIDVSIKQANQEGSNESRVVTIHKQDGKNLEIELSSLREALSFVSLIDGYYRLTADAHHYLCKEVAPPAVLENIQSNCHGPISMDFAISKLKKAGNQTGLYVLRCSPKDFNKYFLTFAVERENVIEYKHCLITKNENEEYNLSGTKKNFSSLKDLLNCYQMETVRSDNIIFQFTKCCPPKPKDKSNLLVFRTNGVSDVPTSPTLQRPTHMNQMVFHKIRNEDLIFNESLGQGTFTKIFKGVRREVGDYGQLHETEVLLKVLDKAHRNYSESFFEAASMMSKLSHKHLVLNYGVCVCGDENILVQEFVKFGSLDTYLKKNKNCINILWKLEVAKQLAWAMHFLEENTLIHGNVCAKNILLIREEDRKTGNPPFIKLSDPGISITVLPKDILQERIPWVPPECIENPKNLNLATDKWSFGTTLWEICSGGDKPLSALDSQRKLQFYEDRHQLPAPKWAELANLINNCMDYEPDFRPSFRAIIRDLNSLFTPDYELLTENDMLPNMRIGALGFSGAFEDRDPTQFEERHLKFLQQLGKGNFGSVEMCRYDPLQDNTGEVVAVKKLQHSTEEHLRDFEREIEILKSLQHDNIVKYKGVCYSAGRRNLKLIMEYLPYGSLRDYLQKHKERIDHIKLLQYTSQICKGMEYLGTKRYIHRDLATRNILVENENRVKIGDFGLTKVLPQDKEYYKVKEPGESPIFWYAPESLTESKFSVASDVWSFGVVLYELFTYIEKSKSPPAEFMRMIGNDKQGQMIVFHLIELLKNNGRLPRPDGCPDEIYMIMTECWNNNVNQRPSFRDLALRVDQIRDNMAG
Chain of Proto-oncogene tyrosine-protein kinase receptor Ret (P07949 whole entry): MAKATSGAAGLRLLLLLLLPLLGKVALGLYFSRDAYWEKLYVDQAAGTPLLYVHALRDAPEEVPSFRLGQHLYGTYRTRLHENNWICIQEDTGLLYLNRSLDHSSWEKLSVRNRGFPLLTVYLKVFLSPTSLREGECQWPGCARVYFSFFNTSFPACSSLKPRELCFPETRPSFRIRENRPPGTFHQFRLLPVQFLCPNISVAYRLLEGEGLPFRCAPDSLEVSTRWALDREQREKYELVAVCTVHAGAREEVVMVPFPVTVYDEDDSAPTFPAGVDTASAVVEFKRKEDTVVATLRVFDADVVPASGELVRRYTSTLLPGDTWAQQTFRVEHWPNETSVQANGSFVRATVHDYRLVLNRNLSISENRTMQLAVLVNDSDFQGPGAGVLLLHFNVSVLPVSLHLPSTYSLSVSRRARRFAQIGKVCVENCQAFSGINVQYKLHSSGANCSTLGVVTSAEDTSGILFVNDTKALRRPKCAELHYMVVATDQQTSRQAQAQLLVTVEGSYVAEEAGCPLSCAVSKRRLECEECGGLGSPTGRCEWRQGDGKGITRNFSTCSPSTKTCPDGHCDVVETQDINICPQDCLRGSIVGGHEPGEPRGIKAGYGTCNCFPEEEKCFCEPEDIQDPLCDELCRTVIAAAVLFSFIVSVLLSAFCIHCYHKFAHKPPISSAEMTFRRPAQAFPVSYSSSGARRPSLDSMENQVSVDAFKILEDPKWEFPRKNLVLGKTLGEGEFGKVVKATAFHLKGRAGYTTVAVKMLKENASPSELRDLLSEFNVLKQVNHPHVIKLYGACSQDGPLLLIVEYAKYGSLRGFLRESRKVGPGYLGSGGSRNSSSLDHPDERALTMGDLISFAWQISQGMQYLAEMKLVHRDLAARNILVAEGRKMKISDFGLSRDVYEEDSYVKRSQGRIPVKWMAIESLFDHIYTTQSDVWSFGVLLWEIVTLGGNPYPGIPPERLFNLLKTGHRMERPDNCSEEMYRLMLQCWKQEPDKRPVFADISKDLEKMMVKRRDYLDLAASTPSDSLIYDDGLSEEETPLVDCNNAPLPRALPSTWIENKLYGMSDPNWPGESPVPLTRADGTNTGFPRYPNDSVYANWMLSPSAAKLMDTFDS
Chain of Serine/threonine-protein kinase pim-1 (P11309 whole entry): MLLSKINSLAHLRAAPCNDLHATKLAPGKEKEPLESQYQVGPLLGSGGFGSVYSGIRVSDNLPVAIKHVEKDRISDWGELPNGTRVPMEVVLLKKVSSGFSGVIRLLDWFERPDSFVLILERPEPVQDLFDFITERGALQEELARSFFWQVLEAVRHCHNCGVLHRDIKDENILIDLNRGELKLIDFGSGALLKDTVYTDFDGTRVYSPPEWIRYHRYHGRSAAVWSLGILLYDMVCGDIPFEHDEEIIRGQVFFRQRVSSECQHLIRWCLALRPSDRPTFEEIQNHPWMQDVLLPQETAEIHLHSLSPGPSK
Chain of Macrophage colony-stimulating factor 1 receptor (P07333 whole entry): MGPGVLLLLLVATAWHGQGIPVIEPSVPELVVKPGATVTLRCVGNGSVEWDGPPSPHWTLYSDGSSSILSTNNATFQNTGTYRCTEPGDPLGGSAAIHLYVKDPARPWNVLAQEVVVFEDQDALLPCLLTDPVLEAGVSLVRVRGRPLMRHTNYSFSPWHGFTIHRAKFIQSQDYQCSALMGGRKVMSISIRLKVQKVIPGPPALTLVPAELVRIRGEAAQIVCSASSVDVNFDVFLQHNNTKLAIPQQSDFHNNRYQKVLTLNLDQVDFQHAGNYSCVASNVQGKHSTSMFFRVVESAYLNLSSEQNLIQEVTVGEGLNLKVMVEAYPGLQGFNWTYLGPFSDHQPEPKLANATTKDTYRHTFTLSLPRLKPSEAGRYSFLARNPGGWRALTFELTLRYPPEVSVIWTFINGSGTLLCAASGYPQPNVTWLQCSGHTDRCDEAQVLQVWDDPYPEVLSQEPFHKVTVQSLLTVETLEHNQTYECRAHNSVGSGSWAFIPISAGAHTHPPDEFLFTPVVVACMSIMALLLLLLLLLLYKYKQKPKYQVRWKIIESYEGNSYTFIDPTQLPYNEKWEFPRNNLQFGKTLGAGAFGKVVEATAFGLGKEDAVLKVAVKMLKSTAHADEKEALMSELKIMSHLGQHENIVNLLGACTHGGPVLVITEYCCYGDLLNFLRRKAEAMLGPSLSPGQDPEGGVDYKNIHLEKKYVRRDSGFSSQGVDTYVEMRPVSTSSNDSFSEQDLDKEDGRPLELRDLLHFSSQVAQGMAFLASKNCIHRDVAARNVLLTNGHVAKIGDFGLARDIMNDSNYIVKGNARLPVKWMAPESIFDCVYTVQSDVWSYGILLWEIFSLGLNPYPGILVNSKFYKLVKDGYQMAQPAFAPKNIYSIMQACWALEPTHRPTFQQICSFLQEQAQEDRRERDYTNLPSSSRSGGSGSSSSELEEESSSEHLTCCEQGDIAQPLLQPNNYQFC
Chain of Mitogen-activated protein kinase kinase kinase kinase 5 (Q9Y4K4 whole entry): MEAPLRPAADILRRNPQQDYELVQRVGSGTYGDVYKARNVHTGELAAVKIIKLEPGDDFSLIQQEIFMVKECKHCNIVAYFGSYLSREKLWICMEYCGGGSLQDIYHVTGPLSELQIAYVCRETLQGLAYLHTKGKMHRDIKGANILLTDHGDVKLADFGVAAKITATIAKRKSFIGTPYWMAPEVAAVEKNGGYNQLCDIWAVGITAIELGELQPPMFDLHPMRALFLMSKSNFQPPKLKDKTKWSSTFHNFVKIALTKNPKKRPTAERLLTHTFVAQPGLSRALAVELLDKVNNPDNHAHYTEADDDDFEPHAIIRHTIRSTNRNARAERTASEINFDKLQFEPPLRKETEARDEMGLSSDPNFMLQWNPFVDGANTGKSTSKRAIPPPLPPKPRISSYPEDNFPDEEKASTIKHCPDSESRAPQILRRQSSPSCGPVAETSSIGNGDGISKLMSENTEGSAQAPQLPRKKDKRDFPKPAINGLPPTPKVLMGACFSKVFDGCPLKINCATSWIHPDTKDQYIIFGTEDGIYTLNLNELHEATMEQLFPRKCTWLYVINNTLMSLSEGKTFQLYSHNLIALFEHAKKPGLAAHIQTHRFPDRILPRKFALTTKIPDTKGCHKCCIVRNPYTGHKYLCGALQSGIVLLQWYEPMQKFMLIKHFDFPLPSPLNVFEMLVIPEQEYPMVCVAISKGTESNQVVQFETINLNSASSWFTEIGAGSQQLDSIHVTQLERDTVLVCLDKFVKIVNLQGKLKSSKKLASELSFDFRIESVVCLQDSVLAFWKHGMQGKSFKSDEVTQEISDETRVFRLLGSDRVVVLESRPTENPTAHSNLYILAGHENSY

COc1cc2c(cc1Nc1nc(Nc3cccc(F)c3C(N)=O)c3cc[nH]c3n1)N(C(=O)CN(C)C)CC2
inactive: Ki [1] > 6.31 µM | Ki [2] > 1.26 µM | Ki (Aurora kinase B) > 3.98 µM | Ki [3] > 2.51 µM | Ki [5] > 3.98 µM | Ki [7] > 3.16 µM | Ki [8] > 2.51 µM | Ki [9] > 6.31 µM | Ki [10] > 3.98 µM | Ki [12] > 3.16 µM | Ki [13] > 7.94 µM | Ki [14] > 1.58 µM
active: Ki [4] 3.98 µM | Ki [6] 0.00794 µM | Ki (Misshapen-like kinase 1) 3.98 µM | Ki [11] 2.51 µM

CCn1nc(/C=C/c2ccccc2)nc2c(=O)n(C)c(=O)nc1-2
active: EC50 [15] 0.789 µM | IC50 (Cysteine protease ATG4B) 0.653 µM | AC50 (Protein RecA) 0.06 µM | AC50 [16] 0.0879 µM

CC(C)c1ccc(-c2nnn(CCC(=O)O)n2)cc1
active: EC50 [17] 4.77 µM | IC50 (Jurkat) < 0.16 µM

O=c1[nH][nH]c2ccc(Br)cc12
active: Ki [3] 39.8 µM | Ki [4] 15.8 µM | Ki [5] 10 µM | Ki [6] 3.98 µM | Ki [7] 25.1 µM | Ki [8] 25.1 µM | Ki [11] 2.51 µM
